Test results: US9149041B2, “Stabilized and activated bromine solutions as a biocide and as an antifouling agent” (Bromine Compounds Ltd., priority 2009, dated 2015)

Assays:
Type in all cases: cell-based
[1] = test system: Inoculum of bacteria (Activated sludge taken from Domestic Waste Water treatment Plant—Haifa); experiment: Microbial efficacy (% bacteria killed) at different TOC loading, activated sludge inoculum (Example 60); conditions: 30 min, pH 7
Experimental: (§1) Inoculum of bacteria (Activated sludge taken from Domestic Waste Water treatment Plant—Haifa).
(§2) R2A agar for general counting.
(§3) Tryptone, in amounts 0.025, 0.119, and 0.239 g solid tryptone respectively, was weighed and dissolved in 1 liter of buffer.
Neutralization solution (NaHSO4). […]
1) 1 ml of inoculum was added to tryptone solutions (placed in 3 Erlenmeyers, 100 ml each, with different concentrations of TOC-0, 10 and 50 ppm).
(§4) 2) 1 ml of each sample was inoculated on R2A agar (pour plate method). The result stands for the bacteria count at zero time.
3) For each of the tryptone concentrations (0, 10, 50 ppm TOC) an inoculum of bacteria (1 ml) and the appropriate biocide concentration were added.
(§5) 4) After 30 min. of shaking (100 rpm), 1 ml of each sample was transferred to a tube filled with 9 ml of the neutralization solution. An aliquot of 1 ml was taken from this solution and added to another tube containing 9 ml of buffer solution. The solution was mixed under vortex. This operation was repeated for 4 more times.
(§6) 5) 1 ml from the two lowest dilutions was inoculated on a R2A agar (by the pour plate method).
(§7) 6) After the plates were incubated at 25° C. for 5-7 days, the bacteria count was recorded.

[2] = test system: Pseudomonas aeruginosa (ATCC 15442); experiment: Microbial efficacy (% bacteria killed) at different TOC loading against Pseudomonas aeruginosa (Example 60)
Experimental: Pseudomonas aeruginosa (ATCC 15442) […]
2) 1 ml of each sample was inoculated on R2A agar (pour plate method). The result stands for the bacteria count at zero time. […]
as §5, §6, §7
7) The above experiment was repeated with Pseudomonas aeruginosa ATCC 15442 (instead of using an inoculums from sludge), which is representative bacteria that form biofilms.
Microbial efficacy of different biocides against Pseudomonas aeruginosa (ATCC 15442) replacing the use activated sludge bacteria.

[3] = test system: Inoculum of bacteria (Activated sludge taken from Domestic Waste Water treatment Plant—Haifa); experiment: Microbial efficacy (% kill) at different TOC loading, activated sludge inoculum (Examples 12-13); conditions: TOC 100 ppm, 30 min, pH 7
Experimental: as §1, §2, §3
Neutralization solution (NaHSO4).
The biocidal efficacy of the antifouling composition at different organic loads of 0, […], 50 and 100 ppm TOC, was examined under different biocidal concentrations (1, 2.5, and 5 ppm) at pH 7.
1) 1 ml of inoculum was added to tryptone solutions (placed in […], 100 ml each, with different concentrations of TOC-0, 10, 50 and 100 ppm).
as §4
3) For each of the tryptone concentrations (0, 10, 50, 100 ppm TOC) an inoculum of bacteria (1 ml) and the appropriate biocide concentration were added.
as §5, §6, §7

[4] = test system: Pseudomonas aeruginosa (ATCC 15442) entrapped in alginate gel beads; experiment: Biocidal activity against simulated biofilm systems (alginate beads), Example 60
Experimental: The biofilm simulation was created by entrapping bacteria in alginate gel beads. […] Buffer phosphate at pH 7.2 was used to scrap off the bacteria from the agar plate and to create a suspension. The bacterial suspension was mixed with an equal volume of an aqueous 4% sodium alginate solution, to make a final 2% alginate solution. The alginate and bacterial slurry were placed in a 50 ml syringe attached to a gauge needle (22), connected to a compressed air tank, allowing the syringe to be pressurized. At 20 psig pressure a stream of small drops was forced out and dropped into a stirred solution of 50 mM CaCl2. The Ca^+2 hardened the alginate, and semi solid beads with entrapped bacterial cells were formed. The beads were allowed to stir in the CaCl2 solution for about 20 minutes, and then rinsed in a dilute 5 mM CaCl2 solution. Several flasks containing 100 beads each were incubated overnight at 35° C. on a rotating shaker in a buffer solution (at pH 7) with 5 mM addition of CaCl2 to maintain the beads structure. The resulting beads diameter is about 2 mm.
The neutralizer-citrate solution was placed in the refrigerator for 2 hours, than diluted and placed on R2A agar plates using pour plate technique. The plates were incubated at 35° C. for 24-48 hours and counted. The efficacy and toxicity of the neutralizer were checked as well as a control experiment without biocide addition. Four concentrations (0.5, 1, 2.5 and 5 ppm) were tested at four different contact times (5, 15, 30, and 60 min). […] In addition, the efficacy of bromourea from chlorourea and NaBr (1:0.5 molar ratio) was tested at the same concentrations (mentioned above) and after a long contact time of 24 hours (Table 23).

[5] = TOC 0 ppm, biocide 2.5 ppm as Cl2
[6] = TOC 0 ppm, biocide 5 ppm as Cl2
[7] = TOC 0 ppm, biocide 10 ppm as Cl2
[8] = TOC 10 ppm, biocide 2.5 ppm as Cl2
[9] = TOC 10 ppm, biocide 5 ppm as Cl2
[10] = TOC 10 ppm, biocide 10 ppm as Cl2
[11] = TOC 50 ppm, biocide 2.5 ppm as Cl2
[12] = TOC 50 ppm, biocide 5 ppm as Cl2
[13] = TOC 50 ppm, biocide 10 ppm as Cl2
[14] = TOC 100 ppm, biocide 2.5 ppm as Cl2
[15] = TOC 100 ppm, biocide 5 ppm as Cl2
[16] = biocide 0.5 ppm as Cl2, contact time 0 (initial count)
[17] = biocide 0.5 ppm as Cl2, contact time 5 min
[18] = biocide 0.5 ppm as Cl2, contact time 15 min
[19] = biocide 0.5 ppm as Cl2, contact time 30 min
[20] = biocide 0.5 ppm as Cl2, contact time 60 min
[21] = biocide 1 ppm as Cl2, contact time 0 (initial count)
[22] = biocide 1 ppm as Cl2, contact time 5 min
[23] = biocide 1 ppm as Cl2, contact time 15 min
[24] = biocide 1 ppm as Cl2, contact time 30 min
[25] = biocide 1 ppm as Cl2, contact time 60 min
[26] = biocide 2.5 ppm as Cl2, contact time 0 (initial count)
[27] = biocide 2.5 ppm as Cl2, contact time 5 min
[28] = biocide 2.5 ppm as Cl2, contact time 15 min
[29] = biocide 2.5 ppm as Cl2, contact time 30 min
[30] = biocide 2.5 ppm as Cl2, contact time 60 min
[31] = biocide 5 ppm as Cl2, contact time 0 (initial count)
[32] = biocide 5 ppm as Cl2, contact time 5 min
[33] = biocide 5 ppm as Cl2, contact time 15 min
[34] = biocide 5 ppm as Cl2, contact time 30 min
[35] = biocide 5 ppm as Cl2, contact time 60 min

Structure (SMILES): NC(=O)NBr [bromourea]
- % bacteria killed [1, 5]: 99.14%
- % bacteria killed [1, 6]: 98.59%
- % bacteria killed [1, 7]: 99.88%
- % bacteria killed [1, 8]: 95.48%
- % bacteria killed [1, 9]: 99.64%
- % bacteria killed [1, 10]: 99.89%
- % bacteria killed [1, 11]: 7.34%
- % bacteria killed [1, 12]: 91.16%
- % bacteria killed [1, 13]: 97.69%
- % bacteria killed [2, 5]: 100%
- % bacteria killed [2, 6]: 100%
- % bacteria killed [2, 7]: 100%
- % bacteria killed [2, 8]: 100%
- % bacteria killed [2, 9]: 100%
- % bacteria killed [2, 10]: 100%
- % bacteria killed [2, 11]: 0%
- % bacteria killed [2, 12]: 99.36%
- % bacteria killed [2, 13]: 100%
- % bacteria killed [2, 14]: 0%
- % bacteria killed [2, 15]: 7.14%
- % bacteria killed ([2]; biocide 10 ppm as Cl2): 100%

Structure (SMILES): [Na+].[O-]Cl [NaOCl, reference compound]
- % kill ([3]; biocide 1 ppm as Cl2): 0%
- % kill ([3]; biocide 2.5 ppm as Cl2): 0%
- % kill ([3]; biocide 5 ppm as Cl2): 0%
- % bacteria killed ([1]; TOC 0 ppm, biocide 1 ppm as Cl2): 54.1%
- % bacteria killed [1, 5]: 95.5%
- % bacteria killed [1, 6]: 99.6%
- % bacteria killed ([1]; TOC 10 ppm, biocide 1 ppm as Cl2): 3.7%
- % bacteria killed [1, 8]: 34.6%
- % bacteria killed [1, 9]: 97.1%
- % bacteria killed ([1]; TOC 50 ppm, biocide 1 ppm as Cl2): 0%
- % bacteria killed [1, 11]: 12.7%
- % bacteria killed [1, 12]: 65.9%
- % bacteria killed [2, 5]: 100%
- % bacteria killed [2, 6]: 100%
- % bacteria killed [2, 7]: 100%
- % bacteria killed [2, 8]: 43.10%
- % bacteria killed [2, 9]: 100%
- % bacteria killed [2, 10]: 100%
- % bacteria killed [2, 11]: 17.24%
- % bacteria killed [2, 12]: 18.97%
- % bacteria killed [2, 13]: 100%
- % bacteria killed [2, 14]: 0%
- % bacteria killed [2, 15]: 27.59%
- % bacteria killed ([2]; biocide 10 ppm as Cl2): 90.86%
- survival of bacteria (CFU) [4, 16]: 8.00 × 10^6 CFU
- survival of bacteria (CFU) [4, 17]: 7.90 × 10^6 CFU
- survival of bacteria (CFU) [4, 18]: 5.65 × 10^6 CFU
- survival of bacteria (CFU) [4, 19]: 4.72 × 10^6 CFU
- survival of bacteria (CFU) [4, 20]: 5.00 × 10^6 CFU
- survival of bacteria (CFU) [4, 21]: 8.00 × 10^6 CFU
- survival of bacteria (CFU) [4, 22]: 4.40 × 10^6 CFU
- survival of bacteria (CFU) [4, 23]: 3.30 × 10^6 CFU
- survival of bacteria (CFU) [4, 24]: 2.15 × 10^6 CFU
- survival of bacteria (CFU) [4, 25]: 1.20 × 10^6 CFU
- survival of bacteria (CFU) [4, 26]: 8.00 × 10^6 CFU
- survival of bacteria (CFU) [4, 27]: 3.60 × 10^6 CFU
- survival of bacteria (CFU) [4, 28]: 1.83 × 10^6 CFU
- survival of bacteria (CFU) [4, 29]: 7.60 × 10^6 CFU
- survival of bacteria (CFU) [4, 30]: 1.95 × 10^5 CFU
- survival of bacteria (CFU) [4, 31]: 8.00 × 10^6 CFU
- survival of bacteria (CFU) [4, 32]: 1.74 × 10^6 CFU
- survival of bacteria (CFU) [4, 33]: 6.80 × 10^6 CFU
- survival of bacteria (CFU) [4, 34]: 3. × 10^6 CFU
- survival of bacteria (CFU) [4, 35]: 1.00 × 10^0 CFU

Structure (SMILES): NC(=O)NCl [chlorourea]
- % bacteria killed [1, 5]: 56.09%
- % bacteria killed [1, 6]: 75.17%
- % bacteria killed [1, 7]: 80.46%
- % bacteria killed [1, 8]: 67.59%
- % bacteria killed [1, 9]: 72.64%
- % bacteria killed [1, 10]: 85.06%
- % bacteria killed [1, 11]: 64.37%
- % bacteria killed [1, 12]: 72.41%
- % bacteria killed [1, 13]: 78.85%
- % bacteria killed [2, 5]: 93.33%
- % bacteria killed [2, 6]: 99.33%
- % bacteria killed [2, 7]: 100%
- % bacteria killed [2, 8]: 93.77%
- % bacteria killed [2, 9]: 99.77%
- % bacteria killed [2, 10]: 100%
- % bacteria killed [2, 11]: 94.93%
- % bacteria killed [2, 12]: 99.81%
- % bacteria killed [2, 13]: 100%
- % bacteria killed [2, 14]: 94.20%
- % bacteria killed [2, 15]: 99.77%
- % bacteria killed ([2]; biocide 10 ppm as Cl2): 100%
- survival of bacteria (CFU) [4, 16]: 8.40 × 10^7 CFU
- survival of bacteria (CFU) [4, 17]: 5.90 × 10^6 CFU
- survival of bacteria (CFU) [4, 18]: 5.30 × 10^6 CFU
- survival of bacteria (CFU) [4, 19]: 5.60 × 10^6 CFU
- survival of bacteria (CFU) [4, 20]: 2.25 × 10^6 CFU
- survival of bacteria (CFU) [4, 21]: 8.40 × 10^7 CFU
- survival of bacteria (CFU) [4, 22]: 7.50 × 10^6 CFU
- survival of bacteria (CFU) [4, 23]: 7.20 × 10^6 CFU
- survival of bacteria (CFU) [4, 24]: 9.40 × 10^5 CFU
- survival of bacteria (CFU) [4, 25]: 9.13 × 10^2 CFU
- survival of bacteria (CFU) [4, 26]: 8.40 × 10^7 CFU
- survival of bacteria (CFU) [4, 27]: 7.80 × 10^6 CFU
- survival of bacteria (CFU) [4, 28]: 2.60 × 10^6 CFU
- survival of bacteria (CFU) [4, 29]: 2.21 × 10^3 CFU
- survival of bacteria (CFU) [4, 30]: 1.00 × 10^0 CFU
- survival of bacteria (CFU) [4, 31]: 8.40 × 10^7 CFU
- survival of bacteria (CFU) [4, 32]: 6.70 × 10^6 CFU
- survival of bacteria (CFU) [4, 33]: 6.50 × 10^4 CFU
- survival of bacteria (CFU) [4, 34]: 1.00 × 10^0 CFU
- survival of bacteria (CFU) [4, 35]: 1.00 × 10^0 CFU
